# Laboratory results as given in patent publication US5210193A, “Piperazine derivatives” (American Cyanamid Company, priority 1990, dated 1993).
# Tests used:
# Assay in all cases: in vitro antibacterial MIC, agar plate dilution
# Format in all cases: cell-based
# [1] = test system: Staphylococcus aureus VGH 84-46; conditions: Staphylococcus aureus, VGH8446, 18 h, 35° C., read-out: MIC
# In short: (§1)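 Minimal inhibitory concentrations came from agar plate dilution in Mueller-Hinton medium. Each organism was delivered at roughly 10^4 CFU by Steers replicator. Plates were read for visible growth after 18 hours at 35° C, values in mcg/ml.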
# [2] = test system: Escherichia coli CMC 84-11; conditions: Escherichia coli, CMC8411, 18 h, 35° C., read-out: MIC
# In short: as §1
# Escherichia coli NAR 311 = conditions: NAR311, 18 hours, 35° C., read-out: MIC
# In short: as §1
# [3] = test system: Klebsiella pneumoniae MOR 84-4; conditions: Klebsiella pneumoniae, MOR844, 18 h, 35° C., read-out: MIC
# In short: as §1
# Klebsiella pneumoniae AD = conditions: Klebsiella pneumoniae, 18 h, 35° C., read-out: MIC
# In short: as §1
# [4] = test system: Streptococcus faecalis VGH 84-65; conditions: Enterococcus faecalis, VGH8465, 18 h, 35° C., read-out: MIC
# In short: as §1
# [5] = test system: Enterobacter aerogenes VGH 84-36; conditions: Klebsiella aerogenes, VGH8436, 18 hours, 35° C., read-out: MIC
# In short: as §1
# [6] = test system: Enterobacter cloacae K 84-10; conditions: Enterobacter cloacae, K8410, 18 h, 35° C., read-out: MIC
# In short: as §1
# [7] = test system: Morganella morganii VGH 84-11; conditions: VGH8411, 18 hours, 35° C., read-out: MIC
# In short: as §1
# [8] = test system: Serratia marcescens K 84-18; conditions: Serratia marcescens, K8418, 18 h, 35° C., read-out: MIC
# In short: as §1
# [9] = test system: Escherichia coli CMC 84-16; conditions: Escherichia coli, CMC8416, 18 h, 35° C., read-out: MIC
# In short: as §1
# [10] = test system: Staphylococcus aureus VGH 84-45; conditions: Staphylococcus aureus, VGH8445, 18 h, 35° C., read-out: MIC
# In short: as §1
# [11] = test system: Streptococcus faecalis ATTC 29212; conditions: Enterococcus faecalis, ATTC29212, 18 hours, 35° C., read-out: MIC
# In short: as §1
# [12] = test system: Staphylococcus epidermidis IO 83-58; conditions: IO8358, 18 hours, 35° C., read-out: MIC
# In short: as §1
# [13] = test system: Pseudomonas aeruginosa VGH 84-4; conditions: Pseudomonas aeruginosa, VGH844, 18 h, 35° C., read-out: MIC
# In short: as §1
# [14] = test system: Pseudomonas aeruginosa LL-1244; conditions: Pseudomonas aeruginosa, LL1244, 18 h, 35° C., read-out: MIC
# In short: as §1
# [15] = test system: Staphylococcus epidermidis CMC 83-135; conditions: CMC83135, 18 hours, 35° C., read-out: MIC
# In short: as §1
# [16] = test system: Escherichia coli PRNT 311; conditions: PRNT311, 18 hours, 35° C., read-out: MIC
# In short: as §1
# [17] = test system: Proteus rettgeri CMC 84-41; conditions: Providencia rettgeri, CMC8441, 18 h, 35° C., read-out: MIC
# In short: as §1
# [18] = test system: Escherichia coli ATCC 25922; conditions: Escherichia coli, ATCC25922, 18 h, 35° C., read-out: MIC
# In short: as §1
# [19] = test system: Acinetobacter calcoaceticus MOR 84-43; conditions: MOR8443, 18 hours, 35° C., read-out: MIC
# In short: as §1
# [20] = test system: Staphylococcus aureus ATTC 29213; conditions: Staphylococcus aureus, ATTC29213, 18 h, 35° C., read-out: MIC
# In short: as §1
# [21] = test system: Staphylococcus aureus CMC 83-128; conditions: CMC83128, 18 hours, 35° C., read-out: MIC
# In short: as §1
# [22] = test system: Enterobacter cloacae VGH 84-37; conditions: Enterobacter cloacae, VGH8437, 18 h, 35° C., read-out: MIC
# In short: as §1
# [23] = test system: Morganella morganii CMC 84-37; conditions: Morganella morganii, CMC8437, 18 h, 35° C., read-out: MIC
# In short: as §1
# [24] = test system: Staphylococcus epidermidis VGH 84-40; conditions: VGH8440, 18 hours, 35° C., read-out: MIC
# In short: as §1
# [25] = test system: Serratia marcescens F 0-35; conditions: Serratia marcescens, F035, 18 h, 35° C., read-out: MIC
# In short: as §1
# [26] = test system: Klebsiella oxytoca MOR 84-28; conditions: MOR8428, 18 hours, 35° C.
# In short: as §1
# [27] = test system: Staphylococcus aureus Smith; conditions: Staphylococcus aureus, 18 h, 35° C., read-out: MIC
# In short: as §1
# [28] = test system: Staphylococcus Spp saprophiticus VGH 84-50; conditions: 18 hours, 35° C., read-out: MIC
# In short: as §1
# [29] = test system: Staphylococcus aureus CMC 83-127; conditions: Staphylococcus aureus, CMC83127, 18 h, 35° C., read-out: MIC
# In short: as §1
Structure (SMILES),MIC [2] [µg/mL],MIC (Escherichia coli NAR 311) [µg/mL],MIC [3] [µg/mL],MIC (Klebsiella pneumoniae AD) [µg/mL],MIC [4] [µg/mL],MIC [5] [µg/mL],MIC [6] [µg/mL],MIC [7] [µg/mL],MIC [8] [µg/mL],MIC [9] [µg/mL],MIC [10] [µg/mL],MIC [11] [µg/mL],MIC [12] [µg/mL],MIC [14] [µg/mL],MIC [15] [µg/mL],MIC [16] [µg/mL],MIC [17] [µg/mL],MIC [18] [µg/mL],MIC [19] [µg/mL],MIC [20] [µg/mL],other results
"O=C(O)c1cn(-c2ccc(F)cc2)c2cc(N3CCNC(c4ccco4)C3)c(F)cc2c1=O (centres unmarked) [Example 67, 6-Fluoro-1-(4-fluorophenyl)-7-[3-(2-furanyl)-1-piperazinyl]-1,4-dihydro-4-oxo-3-quinolinecarboxylic acid]",0.12,2,0.5,0.25,1,1,0.25,1,1,0.12,0.03,0.5,0.06,4,0.06,0.25,1,0.12,0.12,0.06,MIC [1]: 0.03 µg/mL; MIC [21]: 0.06 µg/mL; MIC [22]: 0.25 µg/mL; MIC [23]: 1 µg/mL; MIC [24]: 0.06 µg/mL; MIC [25]: 2 µg/mL; MIC [26]: 0.12 µg/mL; MIC [27]: 0.03 µg/mL; MIC [28]: 0.25 µg/mL; MIC [29]: 0.03 µg/mL
"CCn1cc(C(=O)O)c(=O)c2c(F)c(F)c(N3CCSCC3)c(F)c21 [Example 89, 1-Ethyl-5,6,8-trifluoro-1,4-dihydro-4-oxo-7-(4-thiomorpholinyl)-3-quinolinecarboxylic acid]",1,128,4,2,32,8,2,2,2,2,0.25,8,0.5,64,0.5,2,4,1,2,0.5,MIC [13]: 32 µg/mL; MIC [21]: 1 µg/mL; MIC [22]: 4 µg/mL; MIC [23]: 4 µg/mL; MIC [25]: 2 µg/mL; MIC [26]: 2 µg/mL; MIC [27]: 0.25 µg/mL; MIC [28]: 4 µg/mL; MIC [29]: 0.5 µg/mL
"CN1CCN(c2cc3c(cc2F)c(=O)c(C(=O)O)cn3C2CC2)CC1c1ccsc1 (centres unmarked) [Example 66, 1-Cyclopropyl-6-fluoro-1,4-dihydro-4-oxo-7-[4-methyl-3-(3-thienyl)-1-piperazinyl]-3-quinolinecarboxylic acid]",0.12,0.5,0.5,0.25,0.25,2,0.12,1,2,0.06,0.03,0.5,0.06,16,0.06,0.5,1,0.12,8,0.25,MIC [1]: 0.06 µg/mL; MIC [21]: 0.03 µg/mL; MIC [22]: 0.25 µg/mL; MIC [23]: 0.5 µg/mL; MIC [24]: 0.06 µg/mL; MIC [25]: 2 µg/mL; MIC [26]: 0.12 µg/mL; MIC [27]: 0.06 µg/mL; MIC [28]: 0.06 µg/mL; MIC [29]: 0.03 µg/mL

# Now from value to molecule, other results behind:
MIC [2] [µg/mL],MIC (Escherichia coli NAR 311) [µg/mL],MIC [3] [µg/mL],MIC (Klebsiella pneumoniae AD) [µg/mL],MIC [4] [µg/mL],MIC [5] [µg/mL],MIC [6] [µg/mL],MIC [7] [µg/mL],MIC [8] [µg/mL],MIC [9] [µg/mL],MIC [10] [µg/mL],MIC [11] [µg/mL],MIC [12] [µg/mL],MIC [14] [µg/mL],MIC [15] [µg/mL],MIC [16] [µg/mL],MIC [17] [µg/mL],MIC [18] [µg/mL],MIC [19] [µg/mL],MIC [20] [µg/mL],Structure (SMILES),other results
> 256,> 256,> 256,> 256,> 256,> 256,> 256,> 256,> 256,> 256,16,> 256,128,> 256,64,> 256,> 256,> 256,> 256,64,"CCn1cc(C(=O)O)c(=O)c2cc(F)c(N3CCN(C)C(c4cc5cc(Cl)ccc5o4)C3)cc21 (centres unmarked) [Example 55, 7-[3-(5-Chloro-2-benzofuranyl)-4-methyl-1-piperazinyl]-1-ethyl-6-fluoro-1,4-dihydro-4-oxo-3-quinolinecarboxylic acid]",MIC [1]: 32 µg/mL; MIC [13]: > 256 µg/mL; MIC [21]: 16 µg/mL; MIC [22]: > 256 µg/mL; MIC [23]: > 256 µg/mL; MIC [24]: 32 µg/mL; MIC [25]: > 256 µg/mL; MIC [26]: > 256 µg/mL; MIC [27]: 16 µg/mL; MIC [28]: > 256 µg/mL; MIC [29]: 8 µg/mL
1,16,2,2,4,1,1,1,2,0.5,0.12,4,0.5,64,0.5,2,1,1,8,0.5,"CCn1cc(C(=O)O)c(=O)c2cc(F)c(N3CCNC(c4ccc(C)s4)C3)cc21 (centres unmarked) [Example 37, 1-Ethyl-6-fluoro-1,4-dihydro-7-[3-(5-methyl-2-thienyl)-1-piperazinyl]-4-oxo-3-quinolinecarboxylic acid]",MIC [1]: 0.5 µg/mL; MIC [13]: 16 µg/mL; MIC [21]: 0.25 µg/mL; MIC [22]: 1 µg/mL; MIC [23]: 0.5 µg/mL; MIC [24]: 0.25 µg/mL; MIC [25]: 2 µg/mL; MIC [26]: 1 µg/mL; MIC [27]: 0.5 µg/mL; MIC [28]: 2 µg/mL; MIC [29]: 0.12 µg/mL
> 256,> 256,> 256,> 256,> 256,> 256,> 256,> 256,> 256,> 256,256,> 256,> 256,> 256,> 256,> 256,> 256,> 256,> 256,256,"CCn1cc(C(=O)O)c(=O)c2cc(F)c(N3CCN(C)C(c4sc5ccccc5c4C)C3)cc21 (centres unmarked) [Example 54, 1-Ethyl-6-fluoro-1,4-dihydro-7-[4-methyl-3-(3-methyl-benzo[b]thien-2-yl)-1-oiperazinyl]-4-oxo-3-quinolinecarboxylic acid]",MIC [1]: > 256 µg/mL; MIC [13]: > 256 µg/mL; MIC [21]: 64 µg/mL; MIC [22]: > 256 µg/mL; MIC [23]: > 256 µg/mL; MIC [24]: > 256 µg/mL; MIC [25]: > 256 µg/mL; MIC [26]: > 256 µg/mL; MIC [27]: 64 µg/mL; MIC [28]: > 256 µg/mL; MIC [29]: 32 µg/mL
